Data on ten molecules can be found in patent US20220363662A1, “COMPOUNDS AS LXR AGONISTS” (Integral Biosciences Privated Limited, priority 2021, published 2022).

Assay [1] has as its system HCT116. The assay is described as follows: Cell viability assay (resazurin) in HCT116. It counts as cell-based. Particulars: Homo sapiens, HCT-116; 96 hr exposure. The procedure:
(§1) HepG2 (ATCC® HB-8065™), hepatocellular carcinoma, A549 (ATCC® CCL-185™), lung epithelial carcinoma, MCF7 (ATCC® HTB-22™), mammary gland epithelial carcinoma, MDA-MB-231 (ATCC® HTB-26™), TNBC, MiaPaCa-2 (ATCC® CRL-1420™) & Panc-1 (ATCC® CRL-1469™), pancreatic epithelial carcinoma, HCT116 (ATCC® CCL-247™), colon epithelial carcinoma and U87MG (ATCC® HTB-14™), brain epithelial carcinoma cell lines respectively were seeded in the respective medium (DMEM, Cat #10569044 with 10% FBS, Cat #16000044; Gibco for HepG2, A549, MCF7, MDA-MB-231, MiaPaCa-2, Panc-1, HCT116 and MEM, Cat #11095080 with 10% FBS for U87MG). Cells were allowed to grow at 37° C. for 24 hr in 5% CO2 (culture conditions) in a Nuaire incubator (humidified). Serially diluted compounds (100 μl) were added to the culture plate 24 hr later and the cultures were further incubated in culture conditions for 96 hr. Experiment was terminated at the completion of 96 hr exposure to the drug by replacing the medium with 100 μl of 1 mM of resazurin (R7017; Sigma) prepared in culture medium and the plates were further incubated in culture conditions for 4 hr. Fluorescence was then measured using a multimodal plate reader (Biotek Synergy Neo) at an excitation wavelength of 535 nm and emission wavelength of 590 nm to obtain relative fluorescence units. Data analysis was done by subtracting the background fluorescence (only medium blank) value from each reading and then normalizing with the vehicle control (DMSO treated cells) to obtain percent survival/proliferation. Percent survival at different doses was used to calculate IC50 by fitting the curve to the “four-parameter variable slope logistic model” using Prism Graph Pad.

Assay [2] has as its system MDA-MB-231. The assay is described as follows: Cell viability assay (resazurin) in MDA-MB-231. The class given is cell-based. The note with it: Homo sapiens, 96 hr exposure, read-out: MDA_MB-231 Cell IC50. As to the method:
as §1

Assay [3] concerns the target T1, LXR beta (Homo sapiens, UniProt P55055).
T1 construct: 5 μL of 4×LXR beta-LBD was added to each well (final concentration 5 nM); purchased Thermofisher PV4658
T1 sequence (P55055 222-460 limits assumed): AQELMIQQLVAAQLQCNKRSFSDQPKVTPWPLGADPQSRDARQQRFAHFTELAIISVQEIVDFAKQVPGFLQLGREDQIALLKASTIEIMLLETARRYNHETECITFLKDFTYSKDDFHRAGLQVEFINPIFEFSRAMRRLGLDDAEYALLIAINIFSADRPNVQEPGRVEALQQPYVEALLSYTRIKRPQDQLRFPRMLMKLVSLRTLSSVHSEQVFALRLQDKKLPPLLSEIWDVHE
The assay is described as follows: LXR beta agonist assay (Lanthascreen TR-FRET). The class given is biochemical. The note with it: LXR beta-LBD 5 nM, read-out: LXR-β EC50. The gist of the method:
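TR-FRET coactivator recruitment: 5 nM LXR beta-LBD with 100 nM Fl-D22 peptide and 10 nM Tb-anti-GST antibody (final) in Coregulator Buffer G, 60 min at 22° C, read hourly up to 4 hours. Duplicate three-fold titrations from 30 μM; EC50 by variable-slope nonlinear regression.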

Assay [4] concerns MCF7. The assay is described as follows: Cell viability assay (resazurin) in MCF7. The note with it: Homo sapiens, 96 hr exposure. The class given is cell-based. As to the method: as §1
On the technique in general: Resazurin is reduced to fluorescent resorufin, in cell work by metabolically active cells.

Assay [5] has as its system A549. The assay is described as follows: Cell viability assay (resazurin) in A549. The class given is cell-based. Particulars: Homo sapiens, 96 hr exposure. The procedure: as §1
Assay [6] has as its system HepG2. The assay is described as follows: Cell viability assay (resazurin) in HepG2. The note with it: Homo sapiens, 96 hr exposure. It counts as cell-based. As to the method: as §1
Assay [7] deals with THP1. Put plainly: Cell viability assay in THP1. The class given is cell-based. Particulars: Homo sapiens, THP-1.
Assay [8] concerns ApoE. The assay is described as follows: THP-1 Western blotting assay (ApoE). It counts as cell-based. Particulars: 30 μM; for ApoE normalized with Vehicle treated (DMSO) Control: 18 hour, PMA-differentiated THP-1 cells, densitometry, control = 100; for Fold Difference: ApoE vs DMSO control, THP-1 cells. The procedure: THP-1 cells (2×10^6 cells/well) were differentiated with PMA (10 ng/mL) for 24 following which the cells were treated with different concentrations (30 μM and 10 μM) of compound for 18 hour in cell culture conditions (5% CO2, 37° C.). The cells were lysed using 1×RIPA (Cat #9806; Cell Signaling Technologies) buffer with Protease inhibitor (1×) (Cat #P830, Sigma) and sonicated. Whole cell lysate was collected and protein estimation was done using Bradford Reagent. The samples were subjected to SDS PAGE Electrophoresis and the protein bands were transferred onto PVDF membrane using wet transfer. The membrane was further blocked with 5% non-fat dry milk and incubated with primary antibody (ApoE; 1:1000, Cat #D7I9N, ABCA1; 1:1000, Cat #96292S; Cell Signaling Technologies) and secondary antibody (Anti rabbit IgG 1:2000, Cat #7074S, Cell Signaling Technologies). The membrane was then developed using ECL reagent (Ref. 32106, Thermo Fisher Scientific) in a gel doc system. The expression of protein was quantified by densitometry analysis.
(In general: A western blot detects proteins with antibodies after separation by electrophoresis.)

Assay [9] concerns the target T2, LXR alpha (Homo sapiens, UniProt Q13133).
T2 construct: 5 μL of 4×LXR alpha-LBD was added to each well (final concentration 2.5 nM); purchased Thermofisher PV4655
T2 sequence (Q13133 209-447 limits assumed): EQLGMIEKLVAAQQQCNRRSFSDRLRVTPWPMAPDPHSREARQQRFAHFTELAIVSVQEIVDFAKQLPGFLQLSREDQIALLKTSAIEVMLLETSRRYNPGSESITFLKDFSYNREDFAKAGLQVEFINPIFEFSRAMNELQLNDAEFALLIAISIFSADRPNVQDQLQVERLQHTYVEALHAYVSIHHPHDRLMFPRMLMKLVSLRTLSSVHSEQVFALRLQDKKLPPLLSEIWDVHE
The assay is described as follows: LXR alpha agonist assay (Lanthascreen TR-FRET). The class given is biochemical. Particulars: LXR alpha-LBD 2.5 nM, read-out: LXR-α EC50. As to the method: EC50 values of compounds against LXR alpha were determined at Integral BioSciences (India) using Lanthascreen TR-FRET (Thermofisher, Cat #PV4655). Assay was performed in a 20 μL final volume in a Black 384-well plate (Corning, Cat #4511). Dose response curve for the compounds were prepared in duplicates with starting concentration at 30 μM and a three-fold titration was performed. The reaction buffer consisted of TR-FRET Coregulator Buffer H. To the compound dilution, 5 μL of 4×LXR alpha-LBD was added to each well (final concentration 2.5 nM). An equal volume (5 μL) containing 4×Fl-D22/Tb-anti GST antibody (final concentration 250 nM/10 nM) was added to initiate the enzyme reaction and the reaction was incubated for 60 min at 22° C. after which the plates were read using BioTek Plate reader for TR-FRET every hour up to 4 hours.
Analysis was done using the standard curve by non-linear regression, variable slope inhibitor curve fits (Graph-Pad Prism) and EC50's of compounds were determined wherever possible.
(In TR-FRET formats the signal depends on donor and acceptor labels being close together.)

With `CN(C)C(=O)c1ccc(N[C@H]2CCCN(C3CCN(C(=O)[C@](O)(c4ccccc4)C(F)(F)F)CC3)C2)cc1Cl` [Compound 1.53, 2-chloro-N,N-dimethyl-4-((S)-1′-((R)-3,3,3-trifluoro-2-hydroxy-2-phenylpropanoyl)-1,4′-bipiperidin-3-ylamino)benzamide], the IC50 in [1], in assay [2], in [4], in assay [5], in assay [6] and in [7] was more than 30 µM each time. In addition, the EC50 in [3] was found to be 16.9 µM.
Take `CN(C)C(=O)c1ccc(NC2CN(C3CCN(C(=O)[C@@](O)(c4ccccc4)C(F)(F)F)CC3)C2)cc1Cl` (single isomer, unassigned) [Compound 1.10]: the IC50 in assay [2] is more than 30 µM; in assay [5], more than 30 µM; in [6], more than 29.6 µM. The 50% effective concentration (EC50) was 0.141 µM in assay [3] and 26.1 µM in [9]. Moreover, in assay [8], the “ApoE normalized with Vehicle treated (DMSO) Control” value was 221.8. Also, the “Fold Difference” value in assay [8] turned out to be 2.22.
As for `CC(C)[C@@](O)(C(=O)N1CCC(N2CC(Nc3ccc(C(=O)N(C)C)c(Cl)c3)C2)CC1)C(F)(F)F` (single isomer, unassigned) [Compound 1.44], the IC50 in [1], in assay [2], in assay [5] and in assay [7] was more than 30 µM throughout. In addition, the EC50 in assay [3] was 10.9 µM; in [9], more than 30 µM. For the same molecule, the “ApoE normalized with Vehicle treated (DMSO) Control” value in assay [8] was 156.5. For the same molecule, in assay [8], the “Fold Difference” value turned out to be 1.57.
Consider `CN(C)C(=O)c1ccc(-c2nnc(N3CC4(CCN(S(=O)(=O)c5ccccc5Cl)CC4)C3)s2)cc1Cl` [Compound 1.51, 2-chloro-4-(5-(7-(2-chlorophenylsulfonyl)-2,7-diazaspiro [3.5]nonan-2-yl)-1,3,4-thiadiazol-2-yl)-N,N-dimethylbenzamide], for which the IC50 in [1] was 4.46 µM; in assay [2] it was 5.44 µM; in [4] it was 4.18 µM; in assay [5], 4.47 µM; in assay [6], more than 29 µM; in [7] it was 5.93 µM.
On to `CN(C)C(=O)c1ccc(-c2nnc(N3CCC4(CCN(S(=O)(=O)c5ccccc5Cl)CC4)C3)s2)cc1Cl` [Compound 1.50, 2-chloro-4-(5-(8-(2-chlorophenylsulfonyl)-2,8-diazaspiro[4.5]decan-2-yl)-1,3,4-thiadiazol-2-yl)-N,N-dimethylbenzamide], for which the IC50 in assay [1] worked out at 15.4 µM; in [2], 17 µM; in [4], 14.5 µM; in assay [5], 14.4 µM; in assay [6], 23.8 µM; in [7] it was 14.6 µM.
As to `CC(C)C(O)(C(=O)N1CCC(N2CC[C@@H](Nc3ccc(C(=O)N(C)C)c(Cl)c3)C2)CC1)C(F)(F)F` (stereo partly drawn) [Compound 1.58, 2-chloro-4-((3R)-1-(1-(2-hydroxy-3-methyl-2-(trifluoromethyl)butanoyl)piperidin-4-yl)pyrrolidin-3-ylamino)-N,N-dimethylbenzamide], the IC50 in assay [1], in assay [2], in [4], in [5], in assay [6] and in assay [7] was more than 30 µM throughout.
As for `CN(C)C(=O)c1ccc(NC2CN(C3CCN(C(=O)C(F)(F)c4ccccc4Cl)CC3)C2)cc1Cl` [Compound 1.52, 2-chloro-4-(1-(1-(2-(2-chlorophenyl)-2,2-difluoroacetyl)piperidin-4-yl)azetidin-3-ylamino)-N,N-dimethylbenzamide], the IC50 in assay [1], in [2], in assay [4], in assay [5], in assay [6] and in assay [7] was more than 30 µM throughout. The EC50 in [3] was found to be 5.68 µM.
Regarding `CC(C)C(O)(C(=O)N1CCC2(CC1)CN(C1CCN(c3ccc(C(=O)N(C)C)c(Cl)c3)CC1)C2)C(F)(F)F` (centres unmarked) [Compound 1.54, 2-chloro-4-(4-(7-(2-hydroxy-3-methyl-2-(trifluoromethyl)butanoyl)-2,7-diazaspiro[3.5]nonan-2-yl)piperidin-1-yl)-N,N-dimethylbenzamide], the IC50 in [1], in assay [2], in assay [4], in assay [5], in [6] and in [7] was more than 30 µM in each case. Also, the half-maximal effective concentration (EC50) in [3] was more than 30 µM.
As to `CN(C)C(=O)c1ccc(N[C@@H]2CCN(C3CCN(C(=O)[C@](O)(c4ccccc4)C(F)(F)F)CC3)C2)cc1Cl` [Compound 1.57, 2-chloro-N,N-dimethyl-4-((R)-1-(1-((R)-3,3,3-trifluoro-2-hydroxy-2-phenylpropanoyl)piperidin-4-yl)pyrrolidin-3-ylamino)benzamide], the IC50 in assay [1], in assay [2], in [4], in [5], in assay [6] and in assay [7] was more than 30 µM in each case. Also, in assay [3], the EC50 worked out at 2.82 µM.
Take `CN(C)C(=O)c1ccc(N2CCC(N3CC4(CN(C(=O)[C@](O)(c5ccccc5)C(F)(F)F)C4)C3)CC2)cc1Cl` [Compound 1.55, 2-chloro-N,N-dimethyl-4-(4-(6-((R)-3,3,3-trifluoro-2-hydroxy-2-phenylpropanoyl)-2,6-diazaspiro[3.3]heptan-2-yl)piperidin-1-yl)benzamide]: the IC50 in assay [1], in assay [2], in [4], in assay [5], in assay [6] and in assay [7] was more than 30 µM in each case. For the same molecule, the EC50 in assay [3] came to 16.3 µM.

In general, IC50 refers to the concentration needed to halve the response being measured. As a reminder, the EC50 is the concentration giving half of the maximal effect.
